For one data set, the system named is panel of 168 GPCRs. Description: Cross-reactivity in a panel of 168 GPCRs.
Another data set has as its system MDA-MB-468 cells. The data set is described as follows: Cell cycle analysis. It is filed as cell-based, human. To be noted: after 48 hours.
Data set [1] deals with panel of other dehydrogenases. The data set is described as follows: Panel of other dehydrogenases. The format is biochemical.
Data set [2] has as its system MDA-MB-231 orthotopic xenografts. The data set is described as follows: MDA-MB-231 orthotopic xenografts. The format is in vivo, mouse. The note with it: 40 mg/kg daily, IP. On the procedure:
(§1) Female NOD.CB17-Prkdc^scid/J mice, 6-8 weeks old, were obtained from Jackson Laboratories. All animals were provided with food ad libitum for the duration for the duration of the experiment. The animals were allocated randomly for induction with MDA-MB-231 or MDA-MB-468 tumors and tumor group was assigned blindly. 500,000 MDA-MB-231 or MDA-MB-468 cells were injected into the 4th mammary fat pad of each mouse. After 30 days, the tumors were palpable, and the mice were pooled by tumor type and divided randomly to two groups, which were assigned blindly to vehicle or NCT-503 treatment. […] Caliper measurements were obtained twice weekly and tumor volumes were calculated with the modified ellipsoid formula: volume=0.5×width^2×length.
For quantitation of necrotic regions, fixed tumors were embedded and sections stained with hematoxylin and eosin. Slides were scanned with a Leica Aperio AT2 brightfield scanner. Tumor and necrotic cross-sectional regions were manually delineated and measured using Leica ImageScope software to calculate the percentage of necrosis.

The next data set concerns the target PHGDH (Homo sapiens (Human), UniProt O43175). The data set is described as follows: Inhibitor kinetics: competition against substrates and dilution experiments. The format is biochemical. The note with it: Lineweaver-Burk. The source says:
Destabilization has been previously observed in the specific binding of small molecules to their protein targets (see, e.g., Hamiaux, C. et al. “DAD2 is an α/β hydrolase likely to be involved in the perception of the plant branching hormone, strigolactone.” Curr Biol 22, 2032-2036 (2012)).

Another data set concerns the target C234S PHGDH (Homo sapiens (Human), UniProt O43175, C234S). The data set is described as follows: Inhibition of C234S mutant PHGDH in vitro. The format is biochemical. The note with it: C234S vs wild type PHGDH.
The test system of data set [3] is PHGDH-dependent cell lines (MDA-MB-468, BT-20, HCC70, HT1080, and MT-3). The data set is described as follows: Cytotoxicity (Cell Titer-Glo), PHGDH-dependent cell lines. The note with it: Homo sapiens. The format is cell-based. As for the experimental part:
Knockdown of PHGDH is selectively toxic towards PHGDH-dependent cell lines, and minimally toxic towards PHGDH-independent cell lines. […] Cell count was determined by quantitating the amount of ATP present with CellTitreGlo® measurements 96 hours after dosage.
Cells were seeded in white 96-well plates (Greiner) at a density of 2000 cells/well (MDA-MB-468, BT-20, MT-3) or 1000 cells/well (all other cell lines) and allowed to attach for 24 hours. Compounds were prepared in DMSO and dispensed using an HP D300 compound dispenser. Cell viability was assessed with Cell Titer-Glo (Promega) at four days following treatment and luminescence measured with a SpectraMax M5 Plate Reader (Molecular Devices). Luminescence was normalized to an untreated control in identical medium. For rescue experiments, RPMI was supplemented with 40 μM adenosine, uridine, guanosine, cytidine, deoxyadenosine, thymidine, deoxyguanosine, and deoxycytidine and the medium was replaced daily.

The nature of data set [4]: Pharmacokinetics after intraperitoneal administration. The format is in vivo.
Data set [5] in a line: Body weight of treated xenograft mice. The format is in vivo, mouse. To be noted: 24-day treatment. As for the experimental part:
as §1

Sequence of PHGDH (O43175 whole entry): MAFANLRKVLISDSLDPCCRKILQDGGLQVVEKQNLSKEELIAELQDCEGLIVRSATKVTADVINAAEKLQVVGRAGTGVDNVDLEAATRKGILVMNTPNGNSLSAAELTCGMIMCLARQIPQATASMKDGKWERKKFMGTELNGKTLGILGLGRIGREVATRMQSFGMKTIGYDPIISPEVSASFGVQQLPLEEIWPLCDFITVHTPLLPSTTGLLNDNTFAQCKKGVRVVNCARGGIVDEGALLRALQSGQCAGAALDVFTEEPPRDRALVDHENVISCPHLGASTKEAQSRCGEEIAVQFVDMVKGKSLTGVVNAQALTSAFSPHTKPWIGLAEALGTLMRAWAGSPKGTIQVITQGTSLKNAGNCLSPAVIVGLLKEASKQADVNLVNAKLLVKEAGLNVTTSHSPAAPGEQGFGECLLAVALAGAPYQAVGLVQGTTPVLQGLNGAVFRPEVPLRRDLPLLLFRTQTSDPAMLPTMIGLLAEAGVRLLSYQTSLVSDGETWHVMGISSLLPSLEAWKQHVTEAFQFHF
Sequence of C234S PHGDH (O43175 whole entry C234S): as the sequence (O43175 whole entry) above, with C234S counted along it

Broadly, the EC50 is the concentration that produces a half-maximal response. High values mean weaker potency, low ones greater potency. For the molecule `Cc1cc(C)nc(NC(=S)N2CCN(Cc3ccc(C(F)(F)F)cc3)CC2)c1` [Compound 267, N-(4,6-dimethylpyridin-2-yl)-4-(4-(trifluoromethyl)benzyl)piperazine-1-carbothioamide], the “cross-reactivity, modulation of activity” value in the data set with panel of 168 GPCRs is less than 30%. Moreover, in the data set on MDA-MB-468 cells, the cell cycle effect result is listed as “G1/S arrest”. In [1], the “activity against a panel of other dehydrogenases” value was “inactive”. The “growth or weight of xenografts” value in [2] is “did not affect the growth or weight”. Further, at PHGDH, the “type of inhibition with respect to 3-PG” value was “mixed-mode inhibition” and the “type of inhibition with respect to NAD+” value was “non-competitive inhibition”. Further, the “reduction of potency of PHGDH inhibition by C234S mutation” value at C234S PHGDH is on record as “approximately 3 fold”. Further, the EC50 in [3] lay within 8 to 16 µM. For the same molecule, the “partitioning into the liver and brain” value in data set [4] is “significant partitioning”. The “body weight of mice” value in [5] is “did not lose weight”.
